Several values for one entry are separate records, joined by “and”; a condition that tells them apart may be missing. Identical values can stand only once. Like-named read-outs stand apart in the source and are kept apart here.
What was measured:
Aβ42 [1] = details: transgenic mouse model; cited from earlier work
Aβ42 [2] = details: CHO cells; cited from earlier work
COX = details: cited from earlier work
Aβ42 secretion = Aβ42 secretion by H4 cells expressing APP695, sandwich ELISA; type: cell-based, human; details: medium collected at 24 or 48 hours, several numbers = independent sets of assays; for inhibition at 100 µM / % Inhibition of Aβ42 Secretion @ 100 μM: test compound 100 μM vs DMSO control; for IC50: about 1 μM to about 100 μM
Protocol: (§1) The present invention provides compositions and methods for lowering Aβ42 levels. To test whether compounds and compositions are capable of modulating Aβ levels in cultured cells, sandwich enzyme-linked immunosorbent assays (ELISAs) are employed to measure secreted Aβ (Aβ42 and/or Aβ40 levels). In this example, H4 cells expressing wide type APP695 are seeded at 200,000 cells per well in 6 well plates, and incubated at 37° C. with 5% CO2 overnight. Cells are treated with 1.5 ml medium containing vehicle (DMSO) or a test compound at 1.25 μM, 2.5 μM, 5.0 μM and 10.0 μM (as well as other concentration if desirable) for 24 hours or 48 hours. The supernatant from treated cells is collected into eppendorf tubes and frozen at −80° C. for future analysis.
(§2) The amyloid peptide standard is reconstituted and frozen samples are thawed. The samples and standards are diluted with appropriate diluents and the plate is washed 4 times with Working Wash Buffer and patted dry on a paper towel. 100 μL per well of peptide standards, controls, and dilutions of samples to be analyzed is added. The plate is incubated for 2 hours while shaking on an orbital plate shaker at RT. The plate is then washed 4 times with Working Wash Buffer and patted dry on a paper towel. Detection Antibody Solution is poured into a reservoir and 100 μL/well of Detection Antibody Solution is immediately added to the plate. The plate is incubated at RT for 2 hours while shaking and then washed four times with Working Wash Buffer and patted dry on a paper towel. Secondary Antibody Solution is then poured into a reservoir and 100 μL/well of Secondary Antibody Solution is immediately added to the plate. The plate is incubated at RT for 2 hours with shaking, washed 5 times with Working Wash Buffer, and patted dry on a paper towel.
(§3) 100 μL of stabilized chromogen is added to each well and the liquid in the wells begins to turn blue. The plate is incubated for 30 minutes at room temperature and in the dark. 100 μL of stop solution is added to each well and the plate is tapped gently to mix resulting in a change of solution color from blue to yellow. The absorbance of each well is read at 450 nm having blanked the plate reader against a chromogen blank composed of 100 μL each of stabilized chromogen and stop solution. The plate is read within 2 hours of adding the stop solution. The absorbance of the standards is plotted against the standard concentration and the concentrations of unknown samples and controls are calculated.
(§4) The present invention provides compositions and methods for lowering Aβ42 levels. To test whether compounds and compositions are capable of modulating Aβ levels, sandwich enzyme-linked immunosorbent assays (ELISAs) is employed to measure secreted Aβ42 and/or Aβ40 levels. In this example, H4 cells expressing wide type APP695 are seeded at 200,000 cells per well in 6 well plates, and incubated at 37° C. with 5% CO2 overnight. Cells are treated with 1.5 mL medium containing vehicle (DMSO) or a test compound at 1.25 μM, 2.5 μM, 5.0 μM and 10.0 μM concentration for 24 hours or 48 hours. The supernatant from treated cells is collected into eppendorf tubes and frozen at −80° C. for future analysis.
(§5) 130 μL per well of samples, standards, and blanks is added to a 96-well polypropylene plate. […] of samples, standards, and blanks from the polypropylene plate is added to the antibody-coated plates. The strip-holder with the appropriate number of strips is applied to the antibody-coated plates and the strips are covered with an adhesive sealer. The plate is then incubated 3 hours at room temperature while shaking on an orbital plate shaker.
(§6) The first antibody solution is prepared with Conjugate Diluent 1 at 1:100 ratio. Each well of the antibody-coated plates is washed 5 times with 400 μL washing solution and 100 μL of the prepared first antibody solution is added to each well. […]

Aβ40 secretion = Aβ40 secretion by H4 cells expressing APP695, sandwich ELISA; type: cell-based, human; details: medium collected at 24 or 48 hours, several numbers = independent sets of assays; for IC50: about 1 μM to about 100 μM; for % Inhibition of Aβ40 Secretion @ 100 μM / inhibition at 100 µM: test compound 100 μM vs DMSO control
Protocol: as §1, §2, §3, §4, §5, §6

SMILES: C[C@@H](C(=O)O)c1ccc(-c2ccccc2)c(F)c1 [R-Flurbiprofen]
- Aβ42 lowering (Aβ42 [1]): lower Aβ42
- Aβ42 lowering (Aβ42 [2]): lower Aβ42
- inhibition of COX activity (COX): negligibly inhibits COX activity

SMILES: Cc1c(-c2ccccc2)cc(-c2ccc(Cl)c(Cl)c2)n1-c1ccc(CCCC(=O)O)cc1 [Compound 19, 4-{4-[5-(3,4-Dichloro-phenyl)-2-methyl-3-phenyl-pyrrol-1-yl]-phenyl}-butyric acid]
- inhibition at 100 µM (Aβ42 secretion; Homo sapiens): 95%
- % Inhibition of Aβ42 Secretion @ 100 μM (Aβ42 secretion): 109%
- IC50 (Aβ40 secretion; Homo sapiens): > 100 µM
- IC50 (Aβ40 secretion): 65 µM
- % Inhibition of Aβ40 Secretion @ 100 μM (Aβ40 secretion): 42% and 78%

SMILES: CC(C)c1c(-c2ccccc2)cc(-c2ccccc2)n1-c1cccc(CCC(=O)O)c1 [Compound 31, 3-[3-(2-Isopropyl-3,5-diphenyl-pyrrol-1-yl)-phenyl]-propionic acid]
- IC50 (Aβ42 secretion; Homo sapiens): 21 µM
- inhibition at 100 µM (Aβ42 secretion; Homo sapiens): 95%
- IC50 (Aβ40 secretion; Homo sapiens): 23 µM
- inhibition at 100 µM (Aβ40 secretion; Homo sapiens): 106%

SMILES: O=C(O)CCCc1ccc(-n2c(-c3ccccc3)cc(-c3ccccc3)c2C2CCCCC2)cc1 [Compound 29, 4-[4-(2-Cyclohexyl-3,5-diphenyl-pyrrol-1-yl)-phenyl]-butyric acid]
- IC50 (Aβ42 secretion; Homo sapiens): 14 µM
- inhibition at 100 µM (Aβ42 secretion; Homo sapiens): 102%
- IC50 (Aβ40 secretion; Homo sapiens): 33 µM
- inhibition at 100 µM (Aβ40 secretion; Homo sapiens): 103%

SMILES: Cc1c(-c2ccccc2)cc(-c2ccccc2)n1-c1cccc(CCC(=O)O)c1 [Compound 5, 3-[3-(2-Methyl-3,5-diphenyl-pyrrol-1-yl)-phenyl]-propionic acid]
- IC50 (Aβ42 secretion; Homo sapiens): 100 µM
- inhibition at 100 µM (Aβ42 secretion; Homo sapiens): 55%
- IC50 (Aβ40 secretion; Homo sapiens): > 100 µM
- inhibition at 100 µM (Aβ40 secretion; Homo sapiens): 31%

SMILES: O=C(O)CCc1cccc(-n2c(-c3ccccc3)cc(-c3ccccc3)c2C2CC2)c1 [Compound 34, 3-[3-(2-Cyclopropyl-3,5-diphenyl-pyrrol-1-yl)-phenyl]-propionic acid]
- IC50 (Aβ42 secretion; Homo sapiens): 30 µM
- inhibition at 100 µM (Aβ42 secretion; Homo sapiens): 95%
- IC50 (Aβ40 secretion; Homo sapiens): 48 µM
- inhibition at 100 µM (Aβ40 secretion; Homo sapiens): 100%

SMILES: CC(C)(C)Cc1c(-c2ccccc2)cc(-c2ccccc2)n1-c1cccc(CCC(=O)O)c1 [Compound 37, 3-{3-[2-(2,2-Dimethyl-propyl)-3,5-diphenyl-pyrrol-1-yl]-phenyl}-propionic acid]
- IC50 (Aβ42 secretion; Homo sapiens): 9 µM
- inhibition at 100 µM (Aβ42 secretion; Homo sapiens): 100%
- IC50 (Aβ42 secretion): 7 µM
- % Inhibition of Aβ42 Secretion @ 100 μM (Aβ42 secretion): 99%
- IC50 (Aβ40 secretion; Homo sapiens): 30 µM
- inhibition at 100 µM (Aβ40 secretion; Homo sapiens): 98%
- IC50 (Aβ40 secretion): 32 µM
- % Inhibition of Aβ40 Secretion @ 100 μM (Aβ40 secretion): 104%

SMILES: CCc1c(-c2ccccc2)cc(-c2ccccc2)n1-c1ccc(CCCC(=O)O)cc1 [Compound 13, 4-[4-(2-Ethyl-3,5-diphenyl-pyrrol-1-yl)-phenyl]-butyric acid]
- IC50 (Aβ42 secretion; Homo sapiens): 12 µM
- inhibition at 100 µM (Aβ42 secretion; Homo sapiens): 83%
- IC50 (Aβ40 secretion; Homo sapiens): > 100 µM
- inhibition at 100 µM (Aβ40 secretion; Homo sapiens): 14%

SMILES: Cc1c(-c2cccc(C(F)(F)F)c2)cc(-c2ccccc2)n1-c1cccc(CCC(=O)O)c1 [Compound 9, 3-{3-[2-Methyl-5-phenyl-3-(3-trifluoromethyl-phenyl)-pyrrol-1-yl]-phenyl}-propionic acid]
- IC50 (Aβ42 secretion; Homo sapiens): 15 µM
- inhibition at 100 µM (Aβ42 secretion; Homo sapiens): 82%
- IC50 (Aβ40 secretion; Homo sapiens): 28 µM
- inhibition at 100 µM (Aβ40 secretion; Homo sapiens): 86%

SMILES: Cc1c(-c2cccc(C(F)(F)F)c2)cc(-c2ccccc2)n1-c1ccc(CCCC(=O)O)cc1 [Compound 10, 4-{4-[2-Methyl-5-phenyl-3-(3-trifluoromethyl-phenyl)-pyrrol-1-yl]-phenyl}-butyric acid]
- IC50 (Aβ42 secretion; Homo sapiens): 15 µM
- inhibition at 100 µM (Aβ42 secretion; Homo sapiens): 79%
- IC50 (Aβ40 secretion; Homo sapiens): 11 µM
- inhibition at 100 µM (Aβ40 secretion; Homo sapiens): 97%

SMILES: Cc1c(-c2ccccc2)cc(-c2ccc(C(F)(F)F)cc2)n1-c1ccc(CCCC(=O)O)cc1 [Compound 16, 4-{4-[2-Methyl-3-phenyl-5-(4-trifluoromethyl-phenyl)-pyrrol-1-yl]-phenyl}-butyric acid]
- IC50 (Aβ42 secretion; Homo sapiens): 5 µM
- inhibition at 100 µM (Aβ42 secretion; Homo sapiens): 97%
- IC50 (Aβ42 secretion): 10 µM
- % Inhibition of Aβ42 Secretion @ 100 μM (Aβ42 secretion): 102%
- inhibition at 100 µM (Aβ40 secretion; Homo sapiens): 78%
- % Inhibition of Aβ40 Secretion @ 100 μM (Aβ40 secretion): 93%

SMILES: O=C(O)CCCc1ccc(-n2c(-c3ccccc3)cc(-c3ccccc3)c2C2CC2)cc1 [Compound 35, 4-[4-(2-Cyclopropyl-3,5-diphenyl-pyrrol-1-yl)-phenyl]-butyric acid]
- IC50 (Aβ42 secretion; Homo sapiens): 29 µM
- inhibition at 100 µM (Aβ42 secretion; Homo sapiens): 83%
- IC50 (Aβ42 secretion): 24 µM
- % Inhibition of Aβ42 Secretion @ 100 μM (Aβ42 secretion): 93%
- IC50 (Aβ40 secretion; Homo sapiens): 79 µM
- IC50 (Aβ40 secretion): 68 µM
- % Inhibition of Aβ40 Secretion @ 100 μM (Aβ40 secretion): 73% and 96%

SMILES: O=C(O)c1cccc(-n2cc(-c3ccccc3)cc2-c2ccccc2)c1 [Compound 6, 3-(2,4-Diphenyl-pyrrol-1-yl)-benzoic acid]
- IC50 (Aβ42 secretion; Homo sapiens): 30 µM
- inhibition at 100 µM (Aβ42 secretion; Homo sapiens): 74%
- IC50 (Aβ40 secretion; Homo sapiens): > 100 µM
- inhibition at 100 µM (Aβ40 secretion; Homo sapiens): 32%

SMILES: O=C(O)CCc1cccc(-n2c(CCc3ccccc3)ccc2-c2ccccc2)c1 [Compound 24, 3-[3-(2-Phenethyl-5-phenyl-pyrrol-1-yl)-phenyl]-propionic acid]
- IC50 (Aβ42 secretion; Homo sapiens): 52 µM
- inhibition at 100 µM (Aβ42 secretion; Homo sapiens): 73%
- IC50 (Aβ40 secretion; Homo sapiens): 100 µM
- inhibition at 100 µM (Aβ40 secretion; Homo sapiens): 52%

SMILES: CCOC(=O)c1cc(CCc2ccccc2)n(-c2ccc(CCCC(=O)O)cc2)c1-c1ccccc1 [Compound 22, 1-[4-(3-Carboxy-propyl)-phenyl]-5-phenethyl-2-phenyl-1H-pyrrole-3-carboxylic acid ethyl ester]
- IC50 (Aβ42 secretion; Homo sapiens): 55 µM
- inhibition at 100 µM (Aβ42 secretion; Homo sapiens): 68%
- IC50 (Aβ40 secretion; Homo sapiens): 40 µM
- inhibition at 100 µM (Aβ40 secretion; Homo sapiens): 65%

SMILES: COc1ccc(C(=O)O)cc1-n1c(-c2ccccc2)cc(-c2ccccc2)c1C [Compound 4, 4-Methoxy-3-(2-methyl-3,5-diphenyl-pyrrol-1-yl)-benzoic acid]
- IC50 (Aβ42 secretion; Homo sapiens): 29 µM
- inhibition at 100 µM (Aβ42 secretion; Homo sapiens): 84%
- IC50 (Aβ40 secretion; Homo sapiens): > 100 µM
- inhibition at 100 µM (Aβ40 secretion; Homo sapiens): 22%

SMILES: CC(C)c1c(-c2ccccc2)cc(-c2ccccc2)n1-c1cccc(C(=O)O)c1 [Compound 30, 3-(2-Isopropyl-3,5-diphenyl-pyrrol-1-yl)-benzoic acid]
- IC50 (Aβ42 secretion; Homo sapiens): 15 µM
- inhibition at 100 µM (Aβ42 secretion; Homo sapiens): 99%
- IC50 (Aβ40 secretion; Homo sapiens): 22 µM
- inhibition at 100 µM (Aβ40 secretion; Homo sapiens): 101%
